Measurements as given in patent US20230255906A1, “Targeting Serpin B9 in Cancer” (The Brigham and Women`s Hospital, Inc., priority 2020, published 2023).

Tests used:
MBP = MBP (Escherichia coli, UniProt P0AEX9); assay: SPR negative control channel; assay type: binding
Experimental: FIG. 4B. Sensorgrams of compounds 3,4-dihydroxybenzoic acid (top), 3-oxo-1-indancarboxylic acid (middle), and the compound of Formula (III) (bottom) show the binding of 3,4-dihydroxybenzoic acid and the compound of Formula (III) to Sb9 (top), but not to MBP (bottom) by Surface Plasmon Resonance (SPR).
All assays were run at 25° C. on a BiOptix 404pi. An NTA biosensor chip was used in this study to pre-concentrate 3 μM MBP-Sb9 via an N-terminal His-tag. MBP-Sb9 was covalently immobilized with EDC/NHS in 20 mM HEPES pH 8.0, 150 mM NaCl, 0.05% Tween-20, 5 mM β-ME to 10,000 to 15,000 RUs. MBP was similarly immobilized on a separate channel as a negative control.

A375 human melanoma = A375 human melanoma tumors in NSG mice; assay type: in vivo, mouse; conditions: 300 μg i.p. bid for 14 days
Experimental: FIGS. 10D-10E. […] Data are expressed as means±SEM. *P<0.05 (Student's t-test). Mean survival time (MST) is increased in mice treated with the compound of Formula (III) as compared to Control group (FIG. 10E).
Mice were anesthetized with isoflurane, and tumor cell lines (B16, A375, and 4T1) were gently injected subcutaneously in the flanks or mammary glands of mice. One hundred thousand cells (1×10^5 cells) were injected per mouse for most of the experiments. However, twenty-five thousand cells (25×10^3 cells) were injected per mouse for the experiments using the compound of Formula (III). Upon 4 hrs post-implantation, 300 μg of the compound of Formula (III) was administered twice a day intraperitoneally for 14 days. Tumor growth was monitored three times per week by digital caliper (Fisherbrand™ Traceable™ Digital Calipers).
To assess if the anti-tumor effects of the compound of Formula (III) were generalizable to human diseases, the efficacy in an NSG humanized mouse model of A375 human melanoma was also tested. […] Thus, the compound of Formula (III) can inhibit Sb9 in melanoma tumor cells and render them susceptible to GrB-mediated apoptosis.

[1] = In vivo toxicity (CBC, serum chemistry, H&E); design: species or system mouse; conditions: 300 μg i.p. twice a day for 14 days
Experimental: To further assess the in vivo toxicity of the compound of Formula (III), 300 μg of the compound of Formula (III) was administered twice a day intraperitoneally for 14 days.

[2] = test system: B16-Sb9 KO melanoma cells; assay: Apoptosis by flow cytometry (Annexin-V, viability dye) in Sb9 knockout cells; assay type: cell-based, mouse; conditions: 50 μM, 100 μM, and 200 μM
Experimental: FIG. 5M. […] Cells treated with PBS alone were used as a negative control. Data are expressed as means±SD from three independent experiments.
(§1) To evaluate the off-target effects of the compound of Formula (III) to Sb9 proteins, the B16-Sb9 KO melanoma cells were treated with various concentrations of the compound of Formula (III). […] Furthermore, the antitumor effects of the compound of Formula (III) on the Sb9 KO mice bearing B16-Sb9 KO tumors, as compared to control group were not observed (FIG. 5N).

B16-Sb9 KO tumors = B16-Sb9 KO tumors in Sb9 KO mice; assay type: in vivo, mouse; conditions: Sb9 KO mice bearing B16-Sb9 KO tumors
Experimental: FIG. 5N. Tumor growth curve indicates no difference in antitumor effect of the compound of Formula (III) on B16-Sb9 KO tumors in Sb9 KO mice, as compared to the control group. Data are expressed as means±SEM.
as §1

LLC1 mouse lung tumors = assay: LLC1 lung tumor model in C57BL/6 mice; assay type: in vivo; conditions: 300 μg i.p. bid for 21 days
Excerpt: FIGS. 6P-6Q. […] Data are expressed as means±SEM. *P<0.05 (Student's t-test). Mean survival time (MST) is increased in mice treated with the compound of Formula (III) as compared to Control group (FIG. 6Q).
Furthermore, similar antitumor effects and increased MST using the compound of Formula (III) in two other in vivo tumor models were observed: Renca renal cell carcinoma and LLC1 lung cancer (FIGS. 6M-6Q). Thus, inhibition of Sb9 by the compound of Formula (III) has potent anti-tumor effects in a broad spectrum of tumors, including melanomas as well as breast, lung, and kidney tumors.

B16-Sb9 KO cells = assay: RT-PCR gene expression in B16-Sb9 KO cells; assay type: cell-based, mouse
Experimental: Total RNA was prepared from cells using the Quick-RNA MiniPrep kit (Zymo Research, Irvine, Calif., USA), according to the manufacturer's instructions. cDNA was prepared from total RNA using SuperScript III Reverse Transcriptase (Invitrogen). Following reverse transcription, quantitative PCR was performed using a cycling profile consisting of 95° C. for 2 min (Stage I), 30 cycles of 95° C. for 20 s, 58° C. for 30 s, and 70° C. for 30 s (Stage II), and 65° C. for 5 s (Stage III). Fold changes were determined by subtracting Cq values of the loading control from the Cq values of the gene of interest. The results were normalized to untreated controls.
as §1

Sb9-GrB complex = target: T1, Sb9-GrB complex (Mus musculus, UniProt F7A2V8); assay: Western blot of Sb9-GrB complex in B16 cells; assay type: cell-based; conditions: 50 μM, 200 μM, 600 μM, concentration-dependent
T1 construct: endogenous in cells
Experimental: FIG. 4G. […] Sb9-GrB complex (com), unbound Sb9 (mono), and complex degradation products or cleaved Sb9 (deg) are indicated by arrows. GAPDH was used as a loading control for protein normalization.
Lysates of cells and tissues were measured using the Bradford assay. Equal amounts of protein were separated by SDS-PAGE and transferred to a PVDF membrane. The membranes were immunoblotted with the following specific antibodies: anti-rabbit IgG-HRP (Sigma-Aldrich), anti-rat IgG-HRP (Sigma-Aldrich), and anti-GAPDH (Sigma-Aldrich), using standard protocols. The blots were developed with West Dura chemiluminescent substrates using a Bio-Rad ChemiDoc imaging system.

T1 sequence (F7A2V8 1-374, one chain of several): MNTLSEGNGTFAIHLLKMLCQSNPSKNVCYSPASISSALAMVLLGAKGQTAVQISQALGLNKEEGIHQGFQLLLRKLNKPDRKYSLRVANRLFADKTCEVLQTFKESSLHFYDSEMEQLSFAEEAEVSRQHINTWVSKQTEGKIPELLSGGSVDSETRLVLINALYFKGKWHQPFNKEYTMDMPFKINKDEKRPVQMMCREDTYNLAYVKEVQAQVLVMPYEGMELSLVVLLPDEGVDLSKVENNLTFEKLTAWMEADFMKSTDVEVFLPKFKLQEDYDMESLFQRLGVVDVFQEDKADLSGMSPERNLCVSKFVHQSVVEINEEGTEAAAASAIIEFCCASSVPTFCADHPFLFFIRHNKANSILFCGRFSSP

Q: With `O=C(O)c1ccc2ncoc2c1` [Formula (III), 1,3-benzoxazole-6-carboxylic acid] as the compound, how does the “binding to MBP (negative control)” value (MBP) read?
A: Its value is “not to MBP”.

Q: And the MST vs control (A375 human melanoma)?
A: Its MST vs control is “increased MST”.

Q: And the “reduction of size of human melanoma tumors vs controls” value (A375 human melanoma)?
A: Its value is 2.1 fold.

Q: And the “CBC: WBC, HGB, and PLT vs control” value [1]?
A: Its value is “no significant difference”.

Q: What about the “serum AST, ALT, CRE, and ALB levels vs control” value [1] of the same compound?
A: The value was “similar”.

Q: And the “toxicity to liver, kidney, lung, and heart tissues (H&E staining)” value [1]?
A: The value was “no toxicity”.

Q: And the “additional apoptosis in Sb9 knockout cells (off-target)” value [2]?
A: The value was “No additional apoptotic effect”.

Q: What about the “antitumor effects vs control group” value (B16-Sb9 KO tumors) of the same compound?
A: The value was “not observed”.

Q: What about the “Mean survival time (MST) vs Control” value (LLC1 mouse lung tumors) of the same compound?
A: The value was “increased”.

Q: What about the “tumor growth vs control” value (LLC1 mouse lung tumors; C57BL/6-WT mice) of the same compound?
A: Its value is “significantly slower growth”.

Q: What about the “gene expression of caspase-3/8, P53, and Bcl-2” value (B16-Sb9 KO cells) of the same compound?
A: Its value is “no significant effect”.

Q: What about the “expression of the Sb9-GrB complex” value (Sb9-GrB complex) of the same compound?
A: The value was “reduced the expression of the Sb9-GrB complex”.
